From publication PMC4685510, “A Cell Biologist’s Field Guide to Aurora Kinase Inhibitors” (Frontiers in Oncology, 2015) come the findings set out here.

The structures appear in SMILES notation. Read-outs that look alike come from different tables or passages of the source.

Holding throughout (test): biochemical
Holding throughout (assay type): biochemical

The target in assay [1] is 363 human kinases (including Aurora A/B/C) (Homo sapiens, UniProt P06239). The settings on record: LCK; for remaining activity at 0.5 µM / remaining activity at 0.1 µM: read-out: % Enzyme Activity (relative to DMSO controls); for remaining activity at 0.1 µM: 100 nM.
Chain of 363 human kinases (including Aurora A/B/C) (Homo sapiens, UniProt P06239) (P06239 whole entry): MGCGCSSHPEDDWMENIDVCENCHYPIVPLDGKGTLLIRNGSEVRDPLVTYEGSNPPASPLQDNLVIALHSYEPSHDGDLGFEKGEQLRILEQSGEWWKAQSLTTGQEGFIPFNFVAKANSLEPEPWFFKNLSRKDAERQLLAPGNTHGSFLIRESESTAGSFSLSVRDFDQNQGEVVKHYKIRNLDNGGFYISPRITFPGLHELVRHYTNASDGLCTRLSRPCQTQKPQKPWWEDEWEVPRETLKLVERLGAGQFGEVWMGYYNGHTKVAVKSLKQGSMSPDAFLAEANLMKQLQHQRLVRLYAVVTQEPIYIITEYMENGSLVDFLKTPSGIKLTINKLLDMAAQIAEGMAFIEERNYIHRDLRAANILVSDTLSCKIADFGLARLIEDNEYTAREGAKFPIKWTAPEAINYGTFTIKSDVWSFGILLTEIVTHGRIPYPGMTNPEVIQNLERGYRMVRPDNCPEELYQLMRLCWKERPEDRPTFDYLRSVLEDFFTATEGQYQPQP
Excerpt: (§1) However, the Aurora A/B selectivity ratios derived from our in vitro and in vivo data can be compared to prioritize inhibitors.
Assay [2] deals with T1, 363 human kinases (including Aurora A/B/C) (Homo sapiens, UniProt P29320).
T1 sequence (P29320 21-983): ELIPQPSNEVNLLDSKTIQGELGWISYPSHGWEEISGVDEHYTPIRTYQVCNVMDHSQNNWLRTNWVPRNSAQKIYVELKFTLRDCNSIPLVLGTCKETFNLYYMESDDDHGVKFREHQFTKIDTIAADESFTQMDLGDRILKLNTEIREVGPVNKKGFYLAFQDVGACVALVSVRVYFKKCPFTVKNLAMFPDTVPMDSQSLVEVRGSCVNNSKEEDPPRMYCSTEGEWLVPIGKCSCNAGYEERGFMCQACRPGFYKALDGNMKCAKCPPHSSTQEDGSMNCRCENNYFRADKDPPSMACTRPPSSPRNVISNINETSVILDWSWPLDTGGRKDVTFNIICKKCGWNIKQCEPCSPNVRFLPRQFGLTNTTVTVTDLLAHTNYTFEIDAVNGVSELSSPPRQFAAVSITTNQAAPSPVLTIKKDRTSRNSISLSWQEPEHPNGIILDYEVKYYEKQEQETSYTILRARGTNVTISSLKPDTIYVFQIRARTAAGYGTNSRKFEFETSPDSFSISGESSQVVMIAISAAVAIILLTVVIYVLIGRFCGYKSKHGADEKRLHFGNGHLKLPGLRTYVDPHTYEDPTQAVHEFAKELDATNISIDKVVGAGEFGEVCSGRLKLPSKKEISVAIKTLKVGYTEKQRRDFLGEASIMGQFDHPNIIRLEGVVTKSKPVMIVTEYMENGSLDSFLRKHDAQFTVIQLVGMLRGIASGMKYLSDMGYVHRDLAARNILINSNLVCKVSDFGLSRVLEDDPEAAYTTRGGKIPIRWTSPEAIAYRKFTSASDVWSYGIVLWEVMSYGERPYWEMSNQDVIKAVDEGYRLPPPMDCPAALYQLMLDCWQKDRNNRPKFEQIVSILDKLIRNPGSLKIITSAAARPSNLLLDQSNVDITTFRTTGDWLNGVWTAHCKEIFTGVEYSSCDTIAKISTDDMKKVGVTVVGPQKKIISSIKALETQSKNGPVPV
Particulars: EPHA3, [ATP] 50 µM; for remaining activity at 0.5 µM / remaining activity at 0.1 µM: read-out: % Enzyme Activity (relative to DMSO controls); for remaining activity at 0.1 µM: 100 nM.
Excerpt: as §1

For assay [3], the target named is 363 human kinases (including Aurora A/B/C) (Homo sapiens, UniProt P43405). The settings on record: SYK; for remaining activity at 0.5 µM / remaining activity at 0.1 µM: read-out: % Enzyme Activity (relative to DMSO controls); for remaining activity at 0.1 µM: 100 nM.
Excerpt: as §1
The target of assay [4] is 363 human kinases (including Aurora A/B/C) (Homo sapiens, UniProt P51617). The settings on record: IRAK1; for remaining activity at 0.5 µM / remaining activity at 0.1 µM: read-out: % Enzyme Activity (relative to DMSO controls); for remaining activity at 0.1 µM: 100 nM.
Chain of 363 human kinases (including Aurora A/B/C) (Homo sapiens, UniProt P51617) (P51617 whole entry): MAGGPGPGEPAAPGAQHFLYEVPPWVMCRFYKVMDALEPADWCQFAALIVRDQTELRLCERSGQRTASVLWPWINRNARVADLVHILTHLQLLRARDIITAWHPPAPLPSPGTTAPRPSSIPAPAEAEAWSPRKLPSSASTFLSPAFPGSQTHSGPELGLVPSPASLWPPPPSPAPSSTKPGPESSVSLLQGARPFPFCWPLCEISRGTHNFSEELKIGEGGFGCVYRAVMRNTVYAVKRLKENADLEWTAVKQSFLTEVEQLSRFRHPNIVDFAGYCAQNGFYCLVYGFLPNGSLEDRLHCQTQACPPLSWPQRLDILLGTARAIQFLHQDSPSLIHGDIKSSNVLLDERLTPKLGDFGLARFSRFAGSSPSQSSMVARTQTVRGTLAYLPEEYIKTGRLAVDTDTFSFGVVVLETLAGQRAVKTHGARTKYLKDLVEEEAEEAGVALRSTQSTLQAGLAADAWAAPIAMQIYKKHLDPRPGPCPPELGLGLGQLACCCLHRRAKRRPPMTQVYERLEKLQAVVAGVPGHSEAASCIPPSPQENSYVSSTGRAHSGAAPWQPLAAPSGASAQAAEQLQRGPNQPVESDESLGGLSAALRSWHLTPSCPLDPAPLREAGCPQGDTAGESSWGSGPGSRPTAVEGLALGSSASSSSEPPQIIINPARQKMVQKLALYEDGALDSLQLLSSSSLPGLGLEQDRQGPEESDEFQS
Excerpt: as §1
Assay [5] concerns the target T2, 363 human kinases (including Aurora A/B/C) (Homo sapiens, UniProt P54760).
T2 sequence (P54760 16-987): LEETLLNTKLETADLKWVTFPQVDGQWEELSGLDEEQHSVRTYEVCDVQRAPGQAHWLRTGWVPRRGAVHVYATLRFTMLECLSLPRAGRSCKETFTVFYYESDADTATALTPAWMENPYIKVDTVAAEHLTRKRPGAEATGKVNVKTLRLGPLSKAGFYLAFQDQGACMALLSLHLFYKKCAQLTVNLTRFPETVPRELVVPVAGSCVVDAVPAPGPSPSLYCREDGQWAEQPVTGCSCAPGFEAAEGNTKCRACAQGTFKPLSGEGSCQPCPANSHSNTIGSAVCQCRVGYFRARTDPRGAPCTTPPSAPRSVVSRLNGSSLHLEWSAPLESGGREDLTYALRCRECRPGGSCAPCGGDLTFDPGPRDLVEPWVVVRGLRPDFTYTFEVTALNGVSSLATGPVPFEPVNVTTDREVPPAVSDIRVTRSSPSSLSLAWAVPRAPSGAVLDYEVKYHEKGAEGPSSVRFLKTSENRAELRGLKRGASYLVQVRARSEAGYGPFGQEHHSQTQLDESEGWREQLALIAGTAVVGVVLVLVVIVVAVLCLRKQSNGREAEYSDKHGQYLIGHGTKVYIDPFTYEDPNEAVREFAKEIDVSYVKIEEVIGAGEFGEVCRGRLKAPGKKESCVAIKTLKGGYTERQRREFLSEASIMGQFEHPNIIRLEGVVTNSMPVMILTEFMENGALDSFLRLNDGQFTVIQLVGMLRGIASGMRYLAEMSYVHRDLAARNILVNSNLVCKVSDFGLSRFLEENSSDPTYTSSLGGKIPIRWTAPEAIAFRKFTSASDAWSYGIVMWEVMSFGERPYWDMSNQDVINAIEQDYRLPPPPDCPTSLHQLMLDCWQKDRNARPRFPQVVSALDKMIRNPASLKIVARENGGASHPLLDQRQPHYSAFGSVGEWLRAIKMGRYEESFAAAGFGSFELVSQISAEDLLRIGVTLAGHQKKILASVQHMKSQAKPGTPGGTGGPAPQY
The settings on record: EPHB4, [ATP] 20 µM; for remaining activity at 0.5 µM / remaining activity at 0.1 µM: read-out: % Enzyme Activity (relative to DMSO controls); for remaining activity at 0.1 µM: 100 nM.
Excerpt: as §1

The target of assay [6] is 363 human kinases (including Aurora A/B/C) (Homo sapiens, UniProt P78368). The settings on record: CK1g2, [ATP] 100 µM; for remaining activity at 0.5 µM / remaining activity at 0.1 µM: read-out: % Enzyme Activity (relative to DMSO controls); for remaining activity at 0.1 µM: 100 nM.
Chain of 363 human kinases (including Aurora A/B/C) (Homo sapiens, UniProt P78368) (P78368 whole entry): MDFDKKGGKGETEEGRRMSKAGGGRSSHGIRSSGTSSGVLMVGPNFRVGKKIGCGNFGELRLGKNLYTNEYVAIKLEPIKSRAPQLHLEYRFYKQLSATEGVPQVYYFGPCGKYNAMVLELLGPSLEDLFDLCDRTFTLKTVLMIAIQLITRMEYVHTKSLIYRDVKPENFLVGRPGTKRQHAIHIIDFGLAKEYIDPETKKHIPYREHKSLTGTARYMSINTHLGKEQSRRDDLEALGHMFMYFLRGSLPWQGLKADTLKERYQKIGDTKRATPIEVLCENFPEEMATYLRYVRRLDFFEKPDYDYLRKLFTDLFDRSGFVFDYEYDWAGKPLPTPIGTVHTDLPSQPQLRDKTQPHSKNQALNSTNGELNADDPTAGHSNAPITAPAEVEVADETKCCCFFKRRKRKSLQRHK
Excerpt: as §1
Assay [7] addresses 363 human kinases (including Aurora A/B/C) (Homo sapiens, UniProt Q00535). Particulars: for % Enzyme Activity (relative to DMSO controls) / remaining activity at 0.5 µM: 500 nM; for remaining activity at 0.5 µM / remaining activity at 0.1 µM: read-out: % Enzyme Activity (relative to DMSO controls); for remaining activity at 0.1 µM: 100 nM.
Excerpt: as §1
Assay [8] deals with 363 human kinases (including Aurora A/B/C) (Homo sapiens, UniProt Q00537). The settings on record: CDK17/cyclin Y (PCTK2), [ATP] 50 µM; for remaining activity at 0.5 µM / remaining activity at 0.1 µM: read-out: % Enzyme Activity (relative to DMSO controls); for remaining activity at 0.1 µM: 100 nM.
Chain of 363 human kinases (including Aurora A/B/C) (Homo sapiens, UniProt Q00537) (Q00537 whole entry): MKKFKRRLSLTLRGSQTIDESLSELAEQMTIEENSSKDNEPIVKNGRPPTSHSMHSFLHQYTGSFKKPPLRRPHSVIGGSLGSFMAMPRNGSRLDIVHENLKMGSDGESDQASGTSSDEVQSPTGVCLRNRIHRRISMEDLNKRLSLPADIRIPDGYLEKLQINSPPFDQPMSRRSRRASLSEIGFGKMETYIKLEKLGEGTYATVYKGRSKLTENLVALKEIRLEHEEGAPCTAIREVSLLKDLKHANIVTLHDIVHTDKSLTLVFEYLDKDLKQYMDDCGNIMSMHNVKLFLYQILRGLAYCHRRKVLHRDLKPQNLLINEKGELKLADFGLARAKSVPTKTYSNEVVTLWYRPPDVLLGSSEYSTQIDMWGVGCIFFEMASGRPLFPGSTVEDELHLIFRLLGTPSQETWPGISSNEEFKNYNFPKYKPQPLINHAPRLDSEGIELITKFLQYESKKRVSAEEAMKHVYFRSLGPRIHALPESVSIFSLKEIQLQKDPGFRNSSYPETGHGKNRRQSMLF
Excerpt: as §1
Assay [9] deals with 363 human kinases (including Aurora A/B/C) (Homo sapiens, UniProt Q02750). The settings on record: MEK1; for remaining activity at 0.5 µM / remaining activity at 0.1 µM: read-out: % Enzyme Activity (relative to DMSO controls); for remaining activity at 0.1 µM: 100 nM.
Chain of 363 human kinases (including Aurora A/B/C) (Homo sapiens, UniProt Q02750) (Q02750 whole entry): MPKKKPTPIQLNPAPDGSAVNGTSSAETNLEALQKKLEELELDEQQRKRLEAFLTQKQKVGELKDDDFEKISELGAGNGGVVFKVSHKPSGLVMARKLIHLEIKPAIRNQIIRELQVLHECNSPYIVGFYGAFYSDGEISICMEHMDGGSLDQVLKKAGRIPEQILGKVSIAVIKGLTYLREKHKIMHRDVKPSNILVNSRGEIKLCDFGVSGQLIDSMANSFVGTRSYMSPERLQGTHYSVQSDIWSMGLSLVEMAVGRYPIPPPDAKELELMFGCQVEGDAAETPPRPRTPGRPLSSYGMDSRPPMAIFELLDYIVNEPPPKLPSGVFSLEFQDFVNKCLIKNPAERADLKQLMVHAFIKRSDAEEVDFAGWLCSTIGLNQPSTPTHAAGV
Excerpt: as §1

Chain of 363 human kinases (including Aurora A/B/C) (Homo sapiens, UniProt Q00535) (Q00535 whole entry): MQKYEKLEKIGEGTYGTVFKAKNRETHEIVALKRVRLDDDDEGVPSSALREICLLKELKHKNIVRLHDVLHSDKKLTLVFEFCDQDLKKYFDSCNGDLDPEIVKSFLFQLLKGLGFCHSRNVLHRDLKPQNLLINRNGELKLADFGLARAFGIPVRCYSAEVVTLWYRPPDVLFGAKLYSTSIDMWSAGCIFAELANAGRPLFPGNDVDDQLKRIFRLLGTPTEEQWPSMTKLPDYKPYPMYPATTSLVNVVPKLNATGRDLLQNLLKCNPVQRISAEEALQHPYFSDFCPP

Regarding `O=C(c1cccc(Cl)c1F)N1CCN(Cc2cccc(Nc3nccs3)n2)CC1` [MK-8745], the “% Enzyme Activity (relative to DMSO controls)” value is given as 50.49% in [1] (500 nM); 84.89% in assay [2] (500 nM); 82.70% in assay [3] (500 nM); 18.29% in assay [4] (500 nM); 47.01% in [5] (500 nM); 86.46% in assay [6] (500 nM). The “% Enzyme Activity (relative to DMSO controls)” value in assay [7] (CDK5/p25, [ATP] 50 µM) came to 87.84%; in [7] (CDK5/p35, [ATP] 100 µM), 93.11%; in assay [8] (500 nM), 86.82%; in [9] (500 nM), 96.32%. In addition, the remaining activity at 0.5 µM in assay [1] (500 nM) was 53%; in [2] (500 nM), 85.5%; in [3] (500 nM) it was 83.2%; in [4] (500 nM) it was 19%; in [5] (500 nM) it was 47.7%; in assay [6] (500 nM), 87.5%. Also, the remaining activity at 0.5 µM in assay [7] (CDK5/p25, [ATP] 50 µM) was determined as 88.5%; in assay [7] (CDK5/p35, [ATP] 100 µM), 94.6%; in assay [8] (500 nM), 87%; in assay [9] (500 nM), 97%.

Consider `CCn1cc(-c2ccnc3[nH]c(-c4cccc(CN(C)C)c4)cc23)c(-c2ccc(NC(=O)N(C)C)cc2)n1` [GSK1070916], for which the remaining activity at 0.1 µM is 72.8% in assay [1]; 93.1% in [2]; 84.8% in assay [3]; 122% in assay [4]; 87.9% in assay [5]; 89.5% in [6]. For the same compound, the remaining activity at 0.1 µM is 91.8% in assay [7] (CDK5/p25, [ATP] 50 µM); 111% in assay [7] (CDK5/p35, [ATP] 100 µM); 90.9% in assay [8]; 102% in assay [9].

Regarding `O=C(O)[C@]1(Cc2cccc(Nc3nccs3)n2)CC[C@@H](Oc2cccc(Cl)c2F)CC1` [MK-5108], the remaining activity at 0.1 µM was 62.3% in assay [1]; 67.4% in [2]; 93.8% in assay [3]; 5.35% in [4]; 29.5% in assay [5]; 107% in [6]. The remaining activity at 0.1 µM turned out to be 95.8% in [7] (CDK5/p25, [ATP] 50 µM); 95.7% in assay [7] (CDK5/p35, [ATP] 100 µM); 95.4% in [8]; 93.4% in assay [9]. Also, the remaining activity at 0.5 µM in [1] (500 nM) is 16.6%; in [2] (500 nM) it was 31.4%; in [3] (500 nM) it was 63.6%; in assay [4] (500 nM), 1.01%; in [5] (500 nM) it was 5.58%; in assay [6] (500 nM), 80.2%. Further, the remaining activity at 0.5 µM in [7] (CDK5/p25, [ATP] 50 µM) turned out to be 75.3%; in assay [7] (CDK5/p35, [ATP] 100 µM), 90%; in assay [8] (500 nM), 81.9%; in assay [9] (500 nM), 96.2%.
